Measured values taken from US4868321A, “Isothiocyanate intermediates” (FMC Corporation, priority 1988, dated 1989).

Key:
Type in all cases: in vivo
Cotton [1] = assay: Preemergence Herbicidal Activity, Cotton; conditions: Gossypium hirsutum, pre-emergence
Excerpt: (§1) The herbicidal data in the following Tables 3 and 4 was obtained in the manner described in PCT published application no. WO 85/01939, previously mentioned, usually employing solutions of the herbicidal compound in 50/50 acetone/water mixtures. In those tables, the test compounds are identified by numbers which correspond to those in Table 1, "kg/ha" is kilograms per hectare, and "% C" is percent control.

Soybean [2] = assay: Preemergence Herbicidal Activity, Soybean; conditions: Glycine max, pre-emergence
Excerpt: (§2) The herbicidal data in the following Tables 3 and 4 was obtained in the manner described in PCT published application no. […] In those tables, the test compounds are identified by numbers which correspond to those in Table 1, "kg/ha" is kilograms per hectare, and "% C" is percent control.

Field Corn [3] = assay: Preemergence Herbicidal Activity, Field Corn; conditions: Zea mays, pre-emergence
Excerpt: as §2

Rice = assay: Preemergence Herbicidal Activity, Rice; conditions: Oryza sativa, pre-emergence
Excerpt: as §2

Wheat [4] = assay: Preemergence Herbicidal Activity, Wheat; conditions: Triticum aestivum, pre-emergence
Excerpt: as §2

Field Bindweed [5] = assay: Preemergence Herbicidal Activity, Field Bindweed; conditions: pre-emergence
Excerpt: as §1

Morningglory [6] = assay: Preemergence Herbicidal Activity, Morningglory; conditions: Ipomoea, pre-emergence
Excerpt: as §1

Velvetleaf [7] = assay: Preemergence Herbicidal Activity, Velvetleaf; conditions: Abutilon theophrasti, pre-emergence
Excerpt: as §1

Barnyardgrass [8] = assay: Preemergence Herbicidal Activity, Barnyardgrass; conditions: Echinochloa crus-galli, pre-emergence
Excerpt: as §2

Green Foxtail [9] = assay: Preemergence Herbicidal Activity, Green Foxtail; conditions: Setaria viridis, pre-emergence
Excerpt: as §2

Johnsongrass [10] = assay: Preemergence Herbicidal Activity, Johnsongrass; conditions: Sorghum halepense, pre-emergence
Excerpt: as §2

Cotton [11] = assay: Postemergence Herbicidal Activity, Cotton; conditions: Gossypium hirsutum, post-emergence
Excerpt: as §1

Soybean [12] = assay: Postemergence Herbicidal Activity, Soybean; conditions: Glycine max, post-emergence
Excerpt: as §2

Field Corn [13] = assay: Postemergence Herbicidal Activity, Field Corn; conditions: Zea mays, post-emergence
Excerpt: as §2

Wheat [14] = assay: Postemergence Herbicidal Activity, Wheat; conditions: Triticum aestivum, post-emergence
Excerpt: as §2

Field Bindweed [15] = assay: Postemergence Herbicidal Activity, Field Bindweed; conditions: post-emergence, 8.0 kg/ha
Excerpt: as §1

Morningglory [16] = assay: Postemergence Herbicidal Activity, Morningglory; conditions: Ipomoea, post-emergence
Excerpt: as §1

Velvetleaf [17] = assay: Postemergence Herbicidal Activity, Velvetleaf; conditions: Abutilon theophrasti, post-emergence
Excerpt: as §1

Barnyardgrass [18] = assay: Postemergence Herbicidal Activity, Barnyardgrass; conditions: Echinochloa crus-galli, post-emergence
Excerpt: as §2

Green Foxtail [19] = assay: Postemergence Herbicidal Activity, Green Foxtail; conditions: Setaria viridis, post-emergence
Excerpt: as §2

Johnsongrass [20] = assay: Postemergence Herbicidal Activity, Johnsongrass; conditions: Sorghum halepense, post-emergence
Excerpt: as §2

## CCS(=O)(=O)N(c1cc(-n2nnn(C)c2=O)c(F)cc1Cl)S(=O)(=O)CC [Compound 41, 1-[4-Chloro-2-fluoro-5-[bis(N--ethylsulfonyl)amino]phenyl]-4,5-dihydro-4-methyl-5H--tetrazol-5-one]
Cotton [1]; 2.0 kg/ha
  plant injury at 2000 g/ha: 95%
Soybean [2]; 2.0 kg/ha
  plant injury at 2000 g/ha: 50%
Field Corn [3]; 2.0 kg/ha
  plant injury at 2000 g/ha: 40%
Rice; 2.0 kg/ha
  plant injury at 2000 g/ha: 10%
Wheat [4]; 2.0 kg/ha
  plant injury at 2000 g/ha: 10%
Field Bindweed [5]; 2.0 kg/ha
  pest or weed control at 2000 g/ha: 100%
Morningglory [6]; 2.0 kg/ha
  pest or weed control at 2000 g/ha: 100%
Velvetleaf [7]; 2.0 kg/ha
  pest or weed control at 2000 g/ha: 100%
Barnyardgrass [8]; 2.0 kg/ha
  pest or weed control at 2000 g/ha: 80%
Green Foxtail [9]; 2.0 kg/ha
  pest or weed control at 2000 g/ha: 95%
Johnsongrass [10]; 2.0 kg/ha
  pest or weed control at 2000 g/ha: 20%

## CCCS(=O)(=O)N(c1cc(-n2nnn(CCCF)c2=O)ccc1Cl)S(=O)(=O)CCC [Compound 23]
Cotton [1]; 8.0 kg/ha
  plant injury at 8000 g/ha: 30%
Soybean [2]; 8.0 kg/ha
  plant injury at 8000 g/ha: 10%
Field Corn [3]; 8.0 kg/ha
  plant injury at 8000 g/ha: 90%
Rice; 8.0 kg/ha
  plant injury at 8000 g/ha: 20%
Wheat [4]; 8.0 kg/ha
  plant injury at 8000 g/ha: 40%
Field Bindweed [5]; 8.0 kg/ha
  pest or weed control at 8000 g/ha: 70%
Morningglory [6]; 8.0 kg/ha
  pest or weed control at 8000 g/ha: 70%
Velvetleaf [7]; 8.0 kg/ha
  pest or weed control at 8000 g/ha: 100%
Barnyardgrass [8]; 8.0 kg/ha
  pest or weed control at 8000 g/ha: 80%
Green Foxtail [9]; 8.0 kg/ha
  pest or weed control at 8000 g/ha: 95%
Johnsongrass [10]; 8.0 kg/ha
  pest or weed control at 8000 g/ha: 50%
Cotton [11]; 8.0 kg/ha
  plant injury at 8000 g/ha: 60%
Soybean [12]; 8.0 kg/ha
  plant injury at 8000 g/ha: 40%
Field Corn [13]; 8.0 kg/ha
  plant injury at 8000 g/ha: 30%
Wheat [14]; 8.0 kg/ha
  plant injury at 8000 g/ha: 20%
Field Bindweed [15]
  pest or weed control at 8000 g/ha: 50%
Morningglory [16]; 8.0 kg/ha
  pest or weed control at 8000 g/ha: 60%
Velvetleaf [17]; 8.0 kg/ha
  pest or weed control at 8000 g/ha: 100%
Barnyardgrass [18]; 8.0 kg/ha
  pest or weed control at 8000 g/ha: 40%
Green Foxtail [19]; 8.0 kg/ha
  pest or weed control at 8000 g/ha: 40%
Johnsongrass [20]; 8.0 kg/ha
  pest or weed control at 8000 g/ha: 40%

## CCS(=O)(=O)N(c1cc(-n2nnn(CCCF)c2=O)c(F)cc1Cl)S(=O)(=O)CC [Compound 21, 1-[4-chloro-2-fluoro-5-[bis(N--ethylsulfonyl)amino]phenyl]-1,4-dihydro-4-(3-fluoropropyl)-5H--tetrazol-5-one]
Cotton [1]; 0.5 kg/ha
  plant injury at 500 g/ha: 95%
Soybean [2]; 0.5 kg/ha
  plant injury at 500 g/ha: 20%
Field Corn [3]; 0.5 kg/ha
  plant injury at 500 g/ha: 90%
Rice; 0.5 kg/ha
  plant injury at 500 g/ha: 80%
Wheat [4]; 0.5 kg/ha
  plant injury at 500 g/ha: 95%
Morningglory [6]; 0.5 kg/ha
  pest or weed control at 500 g/ha: 95%
Velvetleaf [7]; 0.5 kg/ha
  pest or weed control at 500 g/ha: 100%
Barnyardgrass [8]; 0.5 kg/ha
  pest or weed control at 500 g/ha: 100%
Green Foxtail [9]; 0.5 kg/ha
  pest or weed control at 500 g/ha: 100%
Johnsongrass [10]; 0.5 kg/ha
  pest or weed control at 500 g/ha: 100%

## CS(=O)(=O)N(c1cc(-n2nnn(CCCF)c2=O)c(F)cc1Cl)S(C)(=O)=O [Compound 9]
Cotton [1]; 1.0 kg/ha
  plant injury at 1000 g/ha: 100%
Soybean [2]; 1.0 kg/ha
  plant injury at 1000 g/ha: 50%
Field Corn [3]; 1.0 kg/ha
  plant injury at 1000 g/ha: 100%
Wheat [4]; 1.0 kg/ha
  plant injury at 1000 g/ha: 90%
Morningglory [6]; 1.0 kg/ha
  pest or weed control at 1000 g/ha: 100%
Velvetleaf [7]; 1.0 kg/ha
  pest or weed control at 1000 g/ha: 100%
Barnyardgrass [8]; 1.0 kg/ha
  pest or weed control at 1000 g/ha: 100%
Green Foxtail [9]; 1.0 kg/ha
  pest or weed control at 1000 g/ha: 100%
Johnsongrass [10]; 1.0 kg/ha
  pest or weed control at 1000 g/ha: 80%
Cotton [11]; 1.0 kg/ha
  plant injury at 1000 g/ha: 100%
Soybean [12]; 1.0 kg/ha
  plant injury at 1000 g/ha: 30%
Field Corn [13]; 1.0 kg/ha
  plant injury at 1000 g/ha: 30%
Wheat [14]; 1.0 kg/ha
  plant injury at 1000 g/ha: 80%
Morningglory [16]; 1.0 kg/ha
  pest or weed control at 1000 g/ha: 100%
Velvetleaf [17]; 1.0 kg/ha
  pest or weed control at 1000 g/ha: 100%
Barnyardgrass [18]; 1.0 kg/ha
  pest or weed control at 1000 g/ha: 100%
Green Foxtail [19]; 1.0 kg/ha
  pest or weed control at 1000 g/ha: 60%
Johnsongrass [20]; 1.0 kg/ha
  pest or weed control at 1000 g/ha: 70%
